According to patent US6900239B2, “Tumor chemopotentiation using isocoumarin derivatives” (ILWZ ILEX Products, Inc., priority 2000, dated 2005):

What was measured:
[1] = test system: MDAMB-435 human breast tumor xenografts; assay: MDAMB-435 orthotopic model, NM-3 with 5-Fluorouracil; type: in vivo, female NCRNU nude mice; conditions: 5-FU 10 mpk q14d; 0,14 alone
Protocol: In order to evaluate the antitumor activity of NM-3 in combination with 5-Fluorouracil (5-FU) vs. MDAMB-435 human breast tumor xenografts, female NCRNU nude mice were implanted with MDAMB-435 cells into the subaxillary mammary fat pad. When the tumors were between 50 and 80 mm^3, NM-3 was administered via intraperitoneal (i.p.) injection daily at 10 and 100 mg/kg; 5-FU was administered via i.p. injection on days 0 and 14, at 10 mg/kg. Mice were weighed twice weekly, and tumor measurements were taken by calipers twice weekly. Mice were euthenized at the end of the treatment period. Upon termination, the mice were weighed, sacrificed and their tumors were excised.
Initial studies were conducted with 5-FU to determine the optimal dose of this agent when administered in combination with NM-3.

colon 26 adenocarcinoma = assay: Combination with cyclophosphamide, survival; type: in vivo, BALB/c mice; conditions: Cyclophosphamide 300 mg/kg i.v. day 14 alone
Protocol: To determine the effect on tumor growth of NM-3 treatment combined with simultaneous cyclophosphamide treatment, colon 26 adenocarcinoma cells (5×10^4 cells per mouse) were subcutaneously transplanted into BALB/c mice (female, 7 weeks old) in the inguinal area. NM-3 was continuously orally administered from day 1 to day 72 after the transplantation except on day 14 when cyclophosphamide was dosed.

IMC carcinoma = assay: Combination with cyclophosphamide, tumor weight; type: in vivo, CDF1 mice; conditions: Cyclophosphamide 300 mg/kg i.v. day 14 alone
Protocol: To determine the effect on IMC carcinoma growth of NM-3 treatment combined with simultaneous cyclophosphamide treatment, IMC carcinoma cells (1×10^6 cells per mouse) were subcutaneously transplanted into CDF1 mice (female, 10 weeks old) in the inguinal area. NM-3 which was dissolved using 5% DMSO+Tween80, was continuously orally administered from day 1 to day 41 after transplantation except on day 14, when cyclophosphamide (300 mg/kg) was injected intravenously.

[2] = test system: transplantable mouse solid tumors; conditions: oral administration; cited from earlier work
cultured tumor cells = conditions: cited from earlier work
[3] = mice and dogs; cited from earlier work
[4] = in vivo; cited from earlier work
[5] = test system: MDAMB-435 human breast tumor xenografts; assay: MDAMB-435 orthotopic model, NM-3 with paclitaxel, first study; type: in vivo, female NCRNU nude mice; conditions: for % Tumor Growth Inhibition: Taxol 10 mg/kg q7d i.p. alone
Excerpt: In order to determine the effect of the combination of NM-3 with the cytotoxic drug, paclitaxel on human breast tumor xenografts, female NCRNU nude mice were implanted with MDAMB-435 cells into the subaxillary mammary fat pad. […]

[6] = test system: MDAMB-435 human breast tumor xenografts; assay: MDAMB-435 orthotopic model, NM-3 with paclitaxel, second study (100 mm^3) and delivery routes; type: in vivo, female NCRNU nude mice; conditions: Taxol 12.5 mg/kg q7d alone
Protocol: In order to determine the effect of the combination of NM-3 with the cytotoxic drug, paclitaxel on human breast tumor xenografts, female NCRNU nude mice were implanted with MDAMB-435 cells into the subaxillary mammary fat pad. NM-3 was administered via intraperitoneal (i.p.) injection daily at doses ranging from 10-100 mg/kg; paclitaxel was administered via i.p. injection every 7 days, starting on day 0, at 10 mg/kg.
In a second study, treatment was initiated when tumor volumes reached 100 mm^3. Paclitaxel was administered at the fixed dose of 12.5 mg/kg, q7d and NM-3 was dosed at 10 and 100 mg/kg, i.p. daily for 28 days.
A comparison was also made between different delivery routes of NM-3 in the combination studies. NM-3 given i.p. daily, bid, and continuously using Alzet mini osmotic pumps in combination with paclitaxel was evaluated for effectiveness in reducing tumor growth.

[7] = test system: Human umbilical vein endothelial cells (HUVEC); assay: HUVEC colony formation with a constant amount of gamma radiation; type: cell-based
Protocol: Human umbilical vein endothelial cells (HUVEC) were exposed to a constant amount of gamma radiation in the presence or absence of various concentrations of NM-3 in the culture medium. The numbers of HUVEC colonies that formed following the different treatments were recorded and normalized to the number of colonies formed under control (no NM-3) conditions and the results are shown in FIG. 1. […] For comparison, HUVEC cells were treated with either angiostatin or endostatin, two additional anti-angiogenic proteins.

[8] = test system: Lewis Lung carcinoma (LLC) tumors; assay: Radiation sensitivity of Lewis Lung carcinoma in vivo; parameters: species or system C57BL/6 female mice; conditions: combined with X-ray treatment
Protocol: To determine whether NM-3 treatment increases the radiation sensitivity of tumors in vivo, Lewis Lung carcinoma (LLC) tumors were established in C57BL/6 female mice (Frederick Cancer Research Institute) prior to NM-3 and radiation treatment. LLC cells (1×10^6 cells) were injected in the right hind limb of the mice and tumors were allowed to grow a volume of 250-350 mm^3. Tumor volumes were determined by direct measurements with calipers calculated by the formula: V=length×width×depth/2. Mice were then divided into groups and treated with NM-3 (100 mg/kg total) or PBS for two days before beginning radiation therapy. Animals then received NM-3 (25 mg/kg/day, i.p.) or PBS approximately four hours prior to radiation treatment. Tumors were irradiated using a GE Maxitron X-ray generator operating at 150 kV, 30 mA, using a 1 mm aluminum filter at a dose rate of 188 cGy/minute. Mice were shielded with lead except for the tumor-bearing area in the hind limb. Treatments and tumor measurements continued for a period of 17 days (see FIG. 4). […] Whereas control tumors reached 8 initial tumor volumes (Vo) after 8 days, X-ray treated tumors required 16 days to grow to this size. […] For comparison, data are plotted with two additional anti-angiogenic drugs, antiostatin and endostatin (see FIGS. 3B and 3C).

Molecule: O=c1[nH]cc(F)c(=O)[nH]1 [5-FU, 5-Fluorouracil, reference compound]
- Final Tumor Wt. (mg) +/− SEM [1]: 259.6 ± 36.22 mg

Molecule: O=P1(N(CCCl)CCCl)NCCCO1 (stereo not shown) [Cyclophosphamide, reference compound]
- Mean Survival Days (days ± S.D.) (colon 26 adenocarcinoma): 47.9 ± 13.9 days
- T/C (%) (colon 26 adenocarcinoma): 145.1%
- T/C (%) (colon 26 adenocarcinoma; listed as cyclophosphamide): 145%
- Inhibition (%) (IMC carcinoma): 70.7%
- Solid Weight mg ± S.D. (IMC carcinoma; day 42): 3620.4 ± 1406.3 mg

Molecule: COc1cc(O)c2c(=O)oc(CO)cc2c1 [Cytogenin, 3-hydroxymethyl-6-methoxy-8-hydroxy-1H-2-benzopyran-1-one]
- Antitumor activity [2]: demonstrated antitumor activities
- Anti-proliferation inhibitory activity (cultured tumor cells): very low anti-proliferation inhibitory activity
- Toxicity [3]: low toxicity
- Stability [4]: in vivo instability

Molecule: CC(=O)O[C@H]1C(=O)[C@@]2(C)[C@H]([C@H](OC(=O)c3ccccc3)[C@]3(O)C[C@H](OC(=O)[C@H](O)[C@@H](NC(=O)c4ccccc4)c4ccccc4)C(C)=C1C3(C)C)[C@]1(OC(C)=O)CO[C@@H]1C[C@@H]2O [Taxol, paclitaxel]
- Final Tumor Wt. (mg) +/− SEM ([5]; Taxol 10 mg/kg q7d alone): 215.6 ± 19.73 mg
- Mice with Complete Shrinkage ([5]; Taxol 10 mg/kg q7d alone, n 9): 0
- % Tumor Growth Inhibition ([5]; listed as Paclitaxel): no tumor growth inhibition
- % Tumor Growth Inhibition ([5]; listed as paclitaxel): minimal effect
- Tumor growth inhibition ([5]; paclitaxel 20 mg/kg, single agent): significant effect on tumor growth inhibition
- % Tumor Growth Inhibition [6]: 26.52%
- Final Tumor Ratio (V/Vo) +/− SEM [6]: 4.71 ± 0.76 V/Vo
- Mice with Complete Shrinkage ([6]; n 9): 0

B1: endostatin: anti-angiogenic protein used for comparison (protein, UniProt P39060 1572-1754, looked up)
Endostatin: HSHRDFQPVLHLVALNSPLSGGMRGIRGADFQCFQQARAVGLAGTFRAFLSSRLQDLYSIVRRADRAAVPIVNLKDELLFPSWEALFSGSEGPLKPGARIFSFDGKDVLRHPTWPQKSVWHGSDPNGRRLTESYCETWRTEAPSATGQASSLLGGRLLGQSAASCHHAYIVLCIENSFMTASK
modifications: Endostatin
notes: anti-angiogenic protein used for comparison
- Inhibition of HUVEC growth compared with NM-3 [7]: Neither angiostatin nor endostatin inhibited HUVEC growth to the extent of NM-3
- Radiation sensitization of tumors [8]: did not

B2: angiostatin: 38-kDa fragment of plasminogen that selectively inhibits proliferation of endothelial cells; anti-angiogenic protein (protein, UniProt P00747 79-466, looked up)
Angiostatin: NRKSSIIIRMRDVVLFEKKVYLSECKTGNGKNYRGTMSKTKNGITCQKWSSTSPHRPRFSPATHPSEGLEENYCRNPDNDPQGPWCYTTDPEKRYDYCDILECEEECMHCSGENYDGKISKTMSGLECQAWDSQSPHAHGYIPSKFPNKNLKKNYCRNPDRELRPWCFTTDPNKRWELCDIPRCTTPPPSSGPTYQCLKGTGENYRGNVAVTVSGHTCQHWSAQTPHTHNRTPENFPCKNLDENYCRNPDGKRAPWCHTTNSQVRWEYCKIPSCDSSPVSTEQLAPTAPPELTPVVQDCYHGDGQSYRGTSSTTTTGKKCQSWSSMTPHRHQKTPENYPNAGLTMNYCRNPDADKGPWCFTTDPSVRWEYCNLKKCSGTEASVVAPPP
modifications: Angiostatin
notes: anti-angiogenic protein
- Inhibition of HUVEC growth compared with NM-3 [7]: Neither angiostatin nor endostatin inhibited HUVEC growth to the extent of NM-3
- Radiation sensitization of tumors [8]: some radiation sensitization
